Source: ChEMBL document CHEMBL4627399, “Synthesis and Structure-Activity Relationships of 5'-Aryl-14-alkoxypyridomorphinans: Identification of a μ Opioid Receptor Agonist/δ Opioid Receptor Antagonist Ligand with Systemic Antinociceptive Activity and Diminished Opioid Side Effects” (J Med Chem, 2020)
Active and inactive are the calls of the source. No cut-off for these calls is given here.

Tests used:
Mu-type opioid receptor [1] = biological target: T1, Mu-type opioid receptor (Homo sapiens, UniProt P35372); experiment: biochemical; type: cell-based, CHO
[2] = biological target: T2, Delta-type opioid receptor (Homo sapiens, UniProt P41143); experiment: Displacement of [3H]-diprenorphine from human delta opioid receptor expressed in CHO cell membranes incubated for 1 hr by competition radioligand binding assay
[3] = biological target: T3, Kappa-type opioid receptor (Homo sapiens, UniProt P41145); experiment: Displacement of [3H]-diprenorphine from human kappa opioid receptor expressed in CHO cell membranes incubated for 1 hr by competition radioligand binding assay
[4] = biological target: T2, Delta-type opioid receptor; experiment: Antagonist activity at human delta opioid receptor expressed in CHO cell membranes assessed as reduction in SNC80-induced [35S]GTPgammaS binding preincubated for 5 mins followed by SNC80 addition and measured after 1 hr; type: functional
[5] = biological target: T3, Kappa-type opioid receptor; experiment: Agonist activity at human kappa opioid receptor expressed in CHO cell membranes incubated for 1 hr by [35S]GTPgammaS binding assay; type: functional
[6] = biological target: T3, Kappa-type opioid receptor; experiment: Agonist activity at human kappa opioid receptor expressed in CHO cell membranes assessed as stimulation of [35S]GTPgammaS binding incubated for 1 hr relative to […]; type: functional
[7] = Stability in human liver microsomes at 1 uM measured up to 60 mins by LC-MS/MS analysis; type: ADME, Microsome; settings: 1 h
Mu-type opioid receptor [8] = biological target: T1, Mu-type opioid receptor; experiment: biochemical

SMILES	Ki (Mu-type opioid receptor [1]) [nM]	Ki [2] [nM]	Ki [3] [nM]	IC50 [4] [nM]	EC50 ([5]; cho)	Emax [6]	Stability [7]	EC50 (Mu-type opioid receptor [8]) [nM]	EC50 ([5]; read-out: EC50) [nM]
CN(C)c1ccc(-c2cnc3c(c2)C[C@@]2(OCCCc4ccccc4)[C@H]4Cc5ccc(O)c6c5[C@@]2(CCN4CC2CC2)[C@H]3O6)cc1	4.7	53.1	6.18	2.53	Not Active	inactive	Stable	2.1	–
Cc1cc(F)ccc1-c1cnc2c(c1)C[C@@]1(OCCCc3ccccc3)[C@H]3Cc4ccc(O)c5c4[C@@]1(CCN3CC1CC1)[C@H]2O5	–	3.78	129	28.2	Not Active	inactive	Stable	–	–
CN(C)c1ccccc1-c1cnc2c(c1)C[C@@]1(OCCCc3ccccc3)[C@H]3Cc4ccc(O)c5c4[C@@]1(CCN3CC1CC1)[C@H]2O5	6.97	69.6	7.96	12.3	Not Active	inactive	Stable	233	–
COc1cc(-c2cnc3c(c2)C[C@@]2(OCCCc4ccccc4)[C@H]4Cc5ccc(O)c6c5[C@@]2(CCN4CC2CC2)[C@H]3O6)ccn1	10.7	3.5	6.62	0.7	Not Active	inactive	Stable	2.69	–
Cc1cc(-c2cnc3c(c2)C[C@@]2(OCCCc4ccccc4)[C@H]4Cc5ccc(O)c6c5[C@@]2(CCN4CC2CC2)[C@H]3O6)ccn1	1.05	63.5	< 0.51	0.39	Not Active	inactive	Stable	1.88	–
CN(C)c1cccc(-c2cnc3c(c2)C[C@@]2(OCCCc4ccccc4)[C@H]4Cc5ccc(O)c6c5[C@@]2(CCN4CC2CC2)[C@H]3O6)c1	15.8	68.9	11.9	3.76	Not Active	inactive	Stable	1.5	–
Cn1cc(-c2cnc3c(c2)C[C@@]2(OCCCc4ccccc4)[C@H]4Cc5ccc(O)c6c5[C@@]2(CCN4CC2CC2)[C@H]3O6)cn1	3.79	7.96	8.4	19.6	Not Active	inactive	Stable	659	–
Oc1ccc2c3c1O[C@H]1c4ncc(-c5cncnc5)cc4C[C@@]4(OCCCc5ccccc5)[C@@H](C2)N(CC2CC2)CC[C@]314	47.9	5.18	24.8	0.87	Not Active	inactive	Stable	> 3330	–
Oc1ccc2c3c1O[C@H]1c4ncc(-c5ccccc5)cc4C[C@@]4(OCCCc5ccccc5)[C@@H](C2)N(CC2CC2)CC[C@]314	23.1	19.3	132	0.93	–	–	Stable	1.27	> 3330
CN(C)Cc1ccccc1-c1cnc2c(c1)C[C@@]1(OCCCc3ccccc3)[C@H]3Cc4ccc(O)c5c4[C@@]1(CCN3CC1CC1)[C@H]2O5	56.4	14	22.7	11.7	Not Active	inactive	Stable	28.9	–
Oc1ccc2c3c1O[C@H]1c4ncc(-c5ccncc5)cc4C[C@@]4(OCCCc5ccccc5)[C@@H](C2)N(CC2CC2)CC[C@]314	47.1	6.43	15.8	18.3	Not Active	inactive	Stable	56.3	–
Oc1ccc2c3c1O[C@H]1c4ncc(-c5ccccc5)cc4C[C@@]4(OCCCC5CCCCC5)[C@@H](C2)N(CC2CC2)CC[C@]314	95.3	12.9	57.9	28.7	–	–	Stable	23.6	34.5
Oc1ccc2c3c1O[C@H]1c4ncc(-c5cccnc5)cc4C[C@@]4(OCCCc5ccccc5)[C@@H](C2)N(CC2CC2)CC[C@]314	82.7	30.6	27.8	0.67	Not Active	inactive	Stable	> 3330	–
Oc1ccc2c3c1O[C@H]1c4ncc(-n5cccc5)cc4C[C@@]4(OCCCc5ccccc5)[C@@H](C2)N(CC2CC2)CC[C@]314	14.7	< 0.169	13.8	0.98	Not Active	inactive	Stable	1.61	–
COc1ccc(-c2cnc3c(c2)C[C@@]2(OCCCc4ccccc4)[C@H]4Cc5ccc(O)c6c5[C@@]2(CCN4CC2CC2)[C@H]3O6)cc1	–	30.6	140	22	–	–	Stable	–	2.02
Cc1cccc(-c2cnc3c(c2)C[C@@]2(OCCCc4ccccc4)[C@H]4Cc5ccc(O)c6c5[C@@]2(CCN4CC2CC2)[C@H]3O6)c1	24.4	26.8	17.6	< 0.169	Not Active	inactive	Stable	20.6	–
Oc1ccc2c3c1O[C@H]1c4ncc(-c5ccc(Br)cc5)cc4C[C@@]4(OCCCc5ccccc5)[C@@H](C2)N(CC2CC2)CC[C@]314	–	20.9	75.9	< 0.51	–	–	Stable	–	5.52
Oc1ccc2c3c1O[C@H]1c4ncc(-c5cnccn5)cc4C[C@@]4(OCCCc5ccccc5)[C@@H](C2)N(CC2CC2)CC[C@]314	88.7	40.1	19.8	1.27	Not Active	inactive	Stable	> 3330	–
Oc1ccc2c3c1O[C@H]1c4ncc(-c5ccncn5)cc4C[C@@]4(OCCCc5ccccc5)[C@@H](C2)N(CC2CC2)CC[C@]314	66.2	22.1	30.8	0.71	Not Active	inactive	Stable	> 3330	–
Oc1ccc2c3c1O[C@H]1c4ncc(-c5ccc(F)cc5)cc4C[C@@]4(OCCCc5ccccc5)[C@@H](C2)N(CC2CC2)CC[C@]314	2.33	3.42	6.69	34.5	–	–	Stable	117	56.6
Oc1ccc2c3c1O[C@H]1c4ncc(-c5ccccc5)cc4C[C@@]4(OCCCc5ccc(F)cc5)[C@@H](C2)N(CC2CC2)CC[C@]314	–	11	60.2	63.8	Not Active	inactive	Stable	–	–
